≈ marks a conversion by molar mass, not a printed value.
Key:
[1] = Stability in aqueous media (FaSSIF, SGF, PBS); assay type: physicochemical; settings: for FaSSIF (pH 6.5) % remaining 1 h / FaSSIF (pH 6.5) % remaining 6 h / FaSSIF (pH 6.5) % remaining 24 h: FaSSIF pH 6.5, 37° C.; for PBS (pH 7.4) % remaining 1 h / PBS (pH 7.4) % remaining 6 h / PBS (pH 7.4) % remaining 24 h: PBS pH 7.4, 37° C.; for SGF (pH 1.2) % remaining 1 h / SGF (pH 1.2) % remaining 6 h / SGF (pH 1.2) % remaining 24 h: SGF pH 1.2, 37° C.
Description: 10 μL of a 10 mM stock solution of the Examples were dissolved in 490 μL DMSO to afford […] working solution SGF (pH 1.2):
Dissolve 0.04 g NaCl and 0.064 g pepsin in 0.14 mL HCl and add sufficient water to 20 mL volume. The pH of the test solution was 1.20±0.05.
0.056% (w/v) lecithin, 0.161% (w/v) sodium taurocholate, 0.39% (w/v) monobasic potassium phosphate, 0.77% (w/v) potassium chloride, deionized H2O. The pH of the test solution was 6.5±0.05.
30 mL of 10×PBS (pH7.4) was added into a 50 mL flask and diluted with water. The solution was mixed well and adjusted to pH 7.4 with 1 N HCl.
2 μL of the 200 μL working solution of the Examples was added into 96-deep-well plates for TO, T60, T120, T360 and T1440 timepoints. Duplicates were prepared.
Stability studies were commenced by the addition of 198 μL of the required media (e.g. Simulated Gastric Fluid pH 1.2 [SGF], Simulated Fasted State Intestinal Fluid pH 6.5 [FaSSIF]) and Phosphate Buffered Saline pH 7.4 [PBS]) to each well except TO. The samples were incubated at 37° C. at 600 rpm for the appointed time. The samples at the corresponding timepoint were removed and immediately mixed with 400 μL of cold acetonitrile containing 200 ng/mL tolbutamide and labetalol (internal standard). The samples were centrifuged at 4000 rpm at 4° C. for 20 minutes. 60 μL of the supernatant was removed and mixed with 180 μL purified water and thoroughly mixed and analysed by LCMS (Shimadzu LC 30-AD, ACQUITY UPLC BEH Phenyl 1.7 um 2.1*50 mm Part No. 186002884, with mobile phase A: 0.1% formic acid in water, mobile phase B: 0.1% formic acid in acetonitrile). Formation of parent was also monitored as a metabolite.
Samples were analysed by Mass Spectrometry QTRAP 6500+.

in vitro = in vitro ADME; settings: rat intestinal microsomes, NADPH, 37° C.
Description: 5 μL of a 10 mM stock solution of the Examples were dissolved in 495 μL acetonitrile to afford 500 μL working solution.
The appropriate amount of β-Nicotinamide adenine dinucleotide phosphate reduced form, tetrasodium salt; NADPH-4Na (NADPH) powder was weighed and diluted into a 10 mM MgCl2 solution (working solution concentration: 10 unit/mL; final concentration in reaction system: 1 unit/mL).
The appropriate concentrations of rat intestinal microsome (Xenotech, cat. No R1000.1) working solutions were prepared in 100 mM potassium phosphate buffer.
Cold (4° C.) acetonitrile (ACN) containing 200 ng/mL tolbutamide and 200 ng/mL labetalol as internal standards (IS).
Incubation plates were pre-incubated for 10 minutes at 37° C. with constant shaking. 54 μL was transferred from Incubation plates into a blank plate and then 6 μL NADPH cofactor and 180 μL quenching solution was added to the Incubation plates. 5 μL Example working solution (100 μM) was also added to the Incubation plates and mixed thoroughly.
The T60 Incubation plate was mixed thoroughly and for the 0-min timepoint, 54 μL was transferred into a Quenching plate (containing 180 μL quenching solution and 6 μL NADPH cofactor). 44 μL NADPH cofactor was then added to the T60 Incubation plate and incubated at 37° C. for 60 min while shaking. At 5, 15, 30, 45, and 60 min, 60 μL samples were transferred from T60 Incubation plate into a Quenching plate (containing 180 μl quenching solution). For the NCF60 Incubation plate, 50 μL of buffer was added and mixed thoroughly before incubation at 37° C. for 60 min while shaking, at the 60-min time point 60 μL was transferred to the Quenching plate (containing 180 μl quenching solution). All sampling plates were shaken for 10 min, then centrifuged at 4000 rpm for 20 minutes at 4° C. 80 μL supernatant was transferred into 240 μL HPLC water, and mixed for 10 min.

[2] = Solubility in simulated fluids (kinetic solubility, 24 hours); assay type: physicochemical; settings: thermodynamic from solid, 24 hour timepoint, room temperature
Description: A known quantity of the Examples and control compounds were weighed into a suitable vessel (whatman miniuniprep vials) and a known volume of the required media was added (e.g. Simulated Gastric Fluid pH 1.2 [SGF], Simulated Fasted State Intestinal Fluid pH 6.5 [FaSSIF] or Phosphate Buffered Saline pH 7.4 [PBS]). The samples were subjected to vortex mixing for 2 minutes followed by agitation on a shaker for 24 hours at room temperature at 800 rpm.

[3] = Comparative solubility data for Reference Example 1 (thermodynamic and kinetic); assay type: physicochemical
[4] = assay type: in vitro ADME; settings: rat plasma, 37° C.
Description: 5 μL of a 10 mM stock solution of the Examples were dissolved in 495 μL DMSO to afford 500 μL working solution Assay procedure:
98 μL plasma was added to each well of a 96-well reaction plate, using one plate per timepoint (Blank, TO, T10, T30, T60, and T120). 2 μL of working solution was added to each well of the reaction plates except Blank. Each plate was incubated at 37° C. for the indicated timepoint (0, 10, 30, 60, 120 minutes). At the end of incubation, 400 μL of stop solution (200 ng/mL tolbutamide and 200 ng/mL labetalol in 0.1% FA in ACN) was added to precipitate protein. The plates were then sealed and shaken for 20 minutes before centrifugation at 4000 rpm for 20 minutes. […] Formation of parent was also monitored as a metabolite.

[5] = simulated gastric fluid, SGF (pH 1.2)

Row | SMILES | FaSSIF (pH 6.5) % remaining 1 h [1] | FaSSIF (pH 6.5) % remaining 6 h [1] | FaSSIF (pH 6.5) % remaining 24 h [1] | PBS (pH 7.4) % remaining 1 h [1] | PBS (pH 7.4) % remaining 6 h [1] | PBS (pH 7.4) % remaining 24 h [1] | SGF (pH 1.2) % remaining 1 h [1] | SGF (pH 1.2) % remaining 6 h [1] | SGF (pH 1.2) % remaining 24 h [1] | CIint(mic) (in vitro) | half-life at 1 µM (in vitro) | solubility kinetic at 24 h [2, 5] | solubility kinetic at 24 h ([2]; FaSSIF (pH 6.5)) | % Example remaining 0 min [4] | Example concentration (nM) 0 min [4] | % Example remaining 10 min [4] | Example concentration (nM) 10 min [4] | other results
1 | CC(C)(C)OC(=O)c1ccc2c(c1)nc(OCCOCCCCNCc1cc(F)c(OC(F)(F)F)c(F)c1)c1ccncc12 [Example 9, tert-butyl 5-(2-(4-((3,5-difluoro-4-(trifluoromethoxy)benzyl)amino)butoxy)ethoxy)benzo[c][2,6]naphthyridine-8-carboxylate] | 92.1% | 98.3% | 96.1% | 80.9% | 27.9% | 10.0% | 102.1% | 57.9% | 19.6% | 78.9 µL/min/mg | 29.3 min | 16.1 µg/mL (≈ 25.9 µM) | 88.3 µg/mL (≈ 142 µM) | – | – | – | – | –
2 | CC(C)OC(=O)OCOC(=O)c1ccc2c(c1)nc(OCCOCCCCNCc1cc(F)c(OC(F)(F)F)c(F)c1)c1ccncc12 [Example 14, ((isopropoxycarbonyl)oxy)methyl 5-(2-(4-((3,5-difluoro-4-(trifluoromethoxy)benzyl)amino)butoxy)ethoxy)benzo[c][2,6]naphthyridine-8-carboxylate] | 98.2% | 93.6% | 102.8% | 91.7% | 34.3% | 4.4% | 105.1% | 63.8% | 23.2% | 1604.8 µL/min/mg | 1.4 min | 15 µg/mL (≈ 22 µM) | 100 µg/mL (≈ 147 µM) | – | – | – | – | –
3 | O=C(O)c1ccc2c(c1)nc(OCCOCCCCNCc1cc(F)c(OC(F)(F)F)c(F)c1)c1ccncc12 [Reference Example 1, 5-(2-(4-((3,5-difluoro-4-(trifluoromethoxy)benzyl)amino)butoxy)ethoxy)benzo[c][2,6]naphthyridine-8-carboxylic acid] | – | – | – | – | – | – | – | – | – | – | – | – | – | – | – | – | – | solubility ([3]; aqueous buffer, kinetic from dmso stock, kinetic, phosphate buffer, initial pH 7.4): 31 µg/mL (≈ 54.8 µM); solubility ([3]; aqueous buffer, thermodynamic from solid, thermodynamic, phosphate buffer, initial pH 1.0): 256 µg/mL (≈ 453 µM); solubility ([3]; aqueous buffer, thermodynamic from solid, thermodynamic, phosphate buffer, initial pH 7.4): < 0.9 µg/mL; solubility ([3]; aqueous buffer, thermodynamic from solid, thermodynamic, phosphate buffer, initial pH 10.0): < 0.9 µg/mL; solubility ([3]; thermodynamic from solid, thermodynamic, FaSSIF, initial pH 6.5): 1.6 µg/mL (≈ 2.83 µM)
4 | CC(=O)OCOC(=O)c1ccc2c(c1)nc(OCCOCCCCNCc1cc(F)c(OC(F)(F)F)c(F)c1)c1ccncc12 [Example 10, acetoxymethyl 5-(2-(4-((3,5-difluoro-4-(trifluoromethoxy)benzyl)amino)butoxy)ethoxy)benzo[c][2,6]naphthyridine-8-carboxylate] | 101.7% | 97.1% | 104.4% | 78.8% | 7.1% | 1.1% | 101.5% | 55.9% | 10.1% | 61.8 µL/min/mg | 37.4 min | 20.9 µg/mL (≈ 32.8 µM) | 91.3 µg/mL (≈ 143 µM) | 100.0% | 2023.5 nM | 0.1% | 2.1 nM | –
5 | CCC(=O)OCOC(=O)c1ccc2c(c1)nc(OCCOCCCCNCc1cc(F)c(OC(F)(F)F)c(F)c1)c1ccncc12 [Example 12, (propionyloxy)methyl 5-(2-(4-((3,5-difluoro-4-(trifluoromethoxy)benzyl)amino)butoxy)ethoxy)benzo[c][2,6]naphthyridine-8-carboxylate] | 94.9% | 96.5% | 99.8% | 76.4% | 6.3% | 1.1% | 101.3% | 49.5% | 10.1% | 90.8 µL/min/mg | 25.4 min | 7.4 µg/mL (≈ 11.4 µM) | 97.5 µg/mL (≈ 150 µM) | – | – | – | – | –
6 | CCOC(=O)OCOC(=O)c1ccc2c(c1)nc(OCCOCCCCNCc1cc(F)c(OC(F)(F)F)c(F)c1)c1ccncc12 [Example 13, ((ethoxycarbonyl)oxy)methyl 5-(2-(4-((3,5-difluoro-4-(trifluoromethoxy)benzyl)amino)butoxy)ethoxy)benzo[c][2,6]naphthyridine-8-carboxylate] | 106.5% | 99.8% | 96.8% | 84.3% | 17.5% | 20.5% | 106.8% | 63.6% | 21.5% | 126.2 µL/min/mg | 18.3 min | 17.8 µg/mL (≈ 26.7 µM) | 98 µg/mL (≈ 147 µM) | 100.0% | 1601.0 nM | 0.1% | 1.6 nM | –
7 | CCOC(=O)c1ccc2c(c1)nc(OCCOCCCCNCc1cc(F)c(OC(F)(F)F)c(F)c1)c1ccncc12 [Example 8, ethyl 5-(2-(4-((3,5-difluoro-4-(trifluoromethoxy)benzyl)amino)butoxy)ethoxy)benzo[c][2,6]naphthyridine-8-carboxylate] | 98.5% | 102.6% | 100.4% | 63.2% | 25.3% | 7.6% | 108.2% | 63.8% | 23.3% | 37.6 µL/min/mg | 61.4 min | 17.8 µg/mL (≈ 30 µM) | 82.8 µg/mL (≈ 139 µM) | 100.0% | 1687.0 nM | 0.2% | 3.1 nM | –

— patent US20260085069A1, “PRODRUGS” (Cambridge Enterprise Limited, priority 2022, published 2026)
